# Experimental data taken from US11324858B2, “Biomaterials for enhanced implant-host integration” (Massachusetts Institute of Technology, priority 2012, dated 2022).
# “Also recorded” adds a separate entry of the source.
# Experiments:
# hepatic aggregates = test: Diffusion of DAPI through ligated constructs after i.p. injection; format: in vivo, mouse; conditions: post i.p. injection, EC Cord Ligated procedure
# Description: FIGS. 16A-16B show the diffusion of small-molecule DAPI through ligated constructs. Constructs containing both hepatic aggregates and cords were implanted using procedures identical to those of the “EC Cord Ligated” control. Following implantation, the animals were injected i.p. with DAPI using the same volume and concentration typically used for luciferin administration. […] By 20 min post injection, DAPI-positive hepatic aggregates were identified throughout the constructs as shown by FIG. 16B.
# To explore whether this vascularization strategy has potential to enable applications such as human tissue replacement or humanized mouse models, it was tested whether coimplantation of EC cords can support primary human hepatocytes. […] To test whether enhanced hepatic function in animals with EC cords was the result of direct paracrine signaling between adjacent EC cords and hepatocytes or of improved access to a blood supply, the parametrial fat pad was severed upstream of the constructs immediately after implantation to reduce blood supply (“EC Cord Ligated”; FIG. 4E). Bioluminescence imaging was performed 20 min after luciferin injection at each time point, which was confirmed to be adequate time for diffusionbased permeation of the construct in ligated control tissues by DAPI (a small molecule similar in size to luciferin; FIG. 16).
# HUVECs and 10T1/2s = test: Cord formation/contraction of HUVEC and 10T1/2 cells in collagen within PDMS microchannels, with contractility inhibitors; format: cell-based, human, mouse; conditions: treated immediately after seeding; 20 μM blebbistatin or 25 μM Y27632
# Description: To test whether patterned endothelial cell (EC) cords induce vivo vessel formation in vivo, EC cords embedded in a fibrin matrix were implanted into the intraperitoneal space of nude mice (schematic, FIG. 1A). The cords were first prepared by seeding HUVECs and 10T1/2 cells suspended within collagen pre-polymer into a PDMS template and allowed to contract and remodel the collagen over a period of 4 hours. During this maturation period, the cells contracted against the matrix and each other, which caused the cords to shrink in diameter to approximately 50% of their original size (FIG. 1B). The HUVECs and 10T1/2 cells were mobile within the cords and also underwent some sorting during this time, with many of the 10T1/2 localizing to the periphery of the cords (FIG. 1C). […] After allowing the cords to contract, they were embedded into a larger fibrin gel (FIG. 1E) and prepared for implantation by attaching the samples to a polypropylene surgical mesh. The cords were implanted adjacent to a fat pad into athymic mice and resected at various time points. Tissues resected after 7 days, sectioned and stained with H&E indicated the presence of blood in areas where EC cords were initially present (FIG. 1F).
# Micropatterning of Endothelial cell cords. EC cords were micropatterned as previously described (2). […]
time to permeate construct and stain hepatic aggregates (hepatic aggregates),SMILES,cord formation / cord contraction under contractility inhibitor (HUVECs and 10T1/2s)
≤ 20 min,N=C(N)c1ccc(-c2cc3ccc(C(=N)N)cc3[nH]2)cc1 [DAPI],–
–,C[C@@H](N)[C@H]1CC[C@H](C(=O)Nc2ccncc2)CC1 [Y27632],failed to form cords
–,Cc1ccc2c(c1)C(=O)C1(O)CCN(c3ccccc3)C1=N2 (stereo not drawn) [blebbistatin],prevented their contraction and elongation of the cells along the collagen; also recorded: failed to form cords
